The subject of one data set is MCF-7 (breast). The experiment in a line: Human cancer cell growth inhibition, sulforhodamine B assay, MCF-7. It is filed as cell-based. The settings on record: read-out: Growth Inhibition of Human Cancer Cell Lines (GI50), MCF-7. How it is done: (§1) Cancer Cell Line Procedures. The human cancer cell growth inhibition data were determined using the standard sulforhodamine B assay of the US National Cancer Institute as previously described.^35 In short, cells in a 5% fetal bovine serum/RPMI1640 medium were inoculated in 96-well plates and incubated for 24 h. Next, serial dilutions of the samples were added. After 48 h, the plates were fixed with trichloroacetic acid, stained with sulforhodamine B, and read with an automated microplate reader. A growth inhibition of 50% (GI50 or the drug concentration causing a 50% reduction in the net protein increase) was determined from optical density data employing Immunosoft® software.

Another data set concerns NCI-H460 (lung). Briefly: Human cancer cell growth inhibition, sulforhodamine B assay, NCI-H460. It is filed as cell-based. To be noted: read-out: Growth Inhibition of Human Cancer Cell Lines (GI50), NCI-H460. As to the method: as §1
In general terms: Sulforhodamine B stains cellular protein and so reports cell mass.

Data set [1] concerns P388 murine lymphocytic leukemia cell line. The experiment in a line: Murine P388 lymphocytic leukemia inhibitory activity. It is filed as cell-based. The settings on record: Mus musculus.
The test system of the next data set is DU-145 (prostate). The experiment in a line: Human cancer cell growth inhibition, sulforhodamine B assay, DU-145. It is filed as cell-based. To be noted: read-out: Growth Inhibition of Human Cancer Cell Lines (GI50), DU-145. As to the method: as §1
For a further data set, the system named is BXPC-3 (pancreas). The experiment in a line: Human cancer cell growth inhibition, sulforhodamine B assay, BXPC-3. It counts as cell-based. To be noted: read-out: Growth Inhibition of Human Cancer Cell Lines (GI50), BXPC-3. How it is done:
as §1

The test system of a further data set is SF-268 (CNS). The experiment in a line: Human cancer cell growth inhibition, sulforhodamine B assay, SF-268. It counts as cell-based. The settings on record: read-out: Growth Inhibition of Human Cancer Cell Lines (GI50), SF-268. As to the method: as §1
Another data set has as its system KM20L2 (colon). The experiment in a line: Human cancer cell growth inhibition, sulforhodamine B assay, KM20L2. It counts as cell-based. To be noted: read-out: Growth Inhibition of Human Cancer Cell Lines (GI50), KM20L2. How it is done:
as §1

Where [2] appears, read: P388, read-out: Murine P388 Lymphocytic Leukemia Inhibitory Activity (ED50).

Molecules are shown by their SMILES. In brackets after ≈: the same amount, converted by molar mass. Read-outs that look alike come from different tables or passages of the source.

`O=C1OCC2=C1C(c1cccc3c1OCO3)c1cc3c(cc1N2)OCO3` (stereo not shown) [Compound 15d, 6,7-Methylenedioxy-9-(2,3-methylenedioxyphenyl)-4,9-dihydro-3H-furo[3,4-b]quinolin-1-one] yielded a melting point of 324 to 327 °C. For the same compound, in the data set with MCF-7 (breast) (MCF7, 48 h), the GI50 stood at 0.0039 µg/mL (≈ 0.0111 µM). Besides, the GI50 in the data set with NCI-H460 (lung) (NCI-H460, 48 h) stood at 0.021 µg/mL (≈ 0.0598 µM). Further, the IC50 in data set [1] (setting [2]) stood at 0.17 µg/mL (≈ 0.484 µM). The GI50 in the data set with DU-145 (prostate) (DU-145, 48 h) stood at 0.041 µg/mL (≈ 0.117 µM). Also, the GI50 with BXPC-3 (pancreas) (BXPC-3, 48 h) was found to be 0.065 µg/mL (≈ 0.185 µM). In addition, in the data set on SF-268 (CNS) (SF-268, 48 h), the GI50 was 0.0089 µg/mL (≈ 0.0253 µM).
Compound `COc1cc(C2C3=C(COC3=O)N(CCc3ccc(Cl)cc3)c3cc4c(cc32)OCO4)cc(OC)c1OC` (stereo not shown) [Compound 26, 6,7-Methylenedioxy-4-[2-(4-chlorophenyl)-ethyl]-9-(3,4,5-trimethoxyphenyl)-4,9-dihydro-3H-furo[3,4-b]quinolin-1-one] returned a melting point of 170 to 173 °C. Besides, the GI50 in the data set with MCF-7 (breast) (MCF7, 48 h) came to 0.34 µg/mL (≈ 0.634 µM). In addition, the concentration for 50% growth inhibition (GI50) in the data set with NCI-H460 (lung) (NCI-H460, 48 h) amounted to 0.3 µg/mL (≈ 0.56 µM). The IC50 in data set [1] (setting [2]) stood at 2.6 µg/mL (≈ 4.85 µM). Also, the GI50 with DU-145 (prostate) (DU-145, 48 h) was 0.31 µg/mL (≈ 0.578 µM). Moreover, the GI50 in the data set on BXPC-3 (pancreas) (BXPC-3, 48 h) is 0.54 µg/mL (≈ 1.01 µM). Besides, the GI50 in the data set on KM20L2 (colon) (KM-20L2, 48 h) is 0.37 µg/mL (≈ 0.69 µM). Moreover, in the data set on SF-268 (CNS) (SF-268, 48 h), the GI50 was found to be 0.35 µg/mL (≈ 0.653 µM).
As to `COc1cc(C2C3=C(COC3=O)Nc3cc(OC)c(OC)c(OC)c32)cc(OC)c1OC` (stereo not shown) [Compound 15, 6,7,8-Trimethoxy-9-(3,4,5-trimethoxyphenyl)-4,9-dihydro-3H-furo[3,4-b]quinolin-1-one], the melting point lay in the range of 137 to 139 °C. Moreover, the GI50 in the data set on MCF-7 (breast) (MCF7, 48 h) turned out to be 1.7 µg/mL (≈ 3.83 µM). Also, in the data set on NCI-H460 (lung) (NCI-H460, 48 h), the 50% growth inhibitory concentration (GI50) is 3.6 µg/mL (≈ 8.12 µM). Besides, the IC50 in data set [1] (setting [2]) was 1.3 µg/mL (≈ 2.93 µM). Also, in the data set with DU-145 (prostate) (DU-145, 48 h), the GI50 was determined as 3.3 µg/mL (≈ 7.44 µM). Further, the GI50 in the data set with BXPC-3 (pancreas) (BXPC-3, 48 h) was found to be 5.6 µg/mL (≈ 12.6 µM). Besides, in the data set on SF-268 (CNS) (SF-268, 48 h), the GI50 is 3.6 µg/mL (≈ 8.12 µM).
As for `COc1cc(C2C3=C(COC3=O)N(CCO)c3cc4c(cc32)OCO4)cc(OC)c1OC` (stereo not shown) [Compound 13, 6,7-Methylenedioxy-4-(2-hydroxy-ethyl)-9-(3,4,5-trimethoxyphenyl)-4,9-dihydro-3H-furo[3,4-b]quinolin-1-one], the GI50 stood at 0.37 µg/mL (≈ 0.838 µM) in the data set on MCF-7 (breast) (MCF7, MCF-7 breast, 48 h, sulforhodamine B); 0.58 µg/mL (≈ 1.31 µM) in the data set with NCI-H460 (lung) (NCI-H460 lung, 48 h, sulforhodamine B); 1.3 µg/mL (≈ 2.94 µM) with DU-145 (prostate) (DU-145 prostate, 48 h, sulforhodamine B); 0.6 µg/mL (≈ 1.36 µM) in the data set with BXPC-3 (pancreas) (BXPC-3 pancreas, 48 h, sulforhodamine B); 0.52 µg/mL (≈ 1.18 µM) in the data set on KM20L2 (colon) (KM-20L2, KM20L2 colon, 48 h, sulforhodamine B); 0.41 µg/mL (≈ 0.929 µM) in the data set on SF-268 (CNS) (SF-268 CNS, 48 h, sulforhodamine B). The IC50 in data set [1] (P388 cell line, read-out: Murine P388 Lymphocytic Leukemia Inhibitory Activity (ED50)) is 2 µg/mL (≈ 4.53 µM).
For `COc1cc(C2C3=C(COC3=O)N(Cc3ccco3)c3cc4c(cc32)OCO4)cc(OC)c1O` (stereo not shown) [Compound 32, 6,7-Methylenedioxy-4-(furan-2-ylmethyl)-9-(4-hydroxy-3,5-dimethoxy-phenyl)-4,9-dihydro-3H-furo[3,4-b]quinolin-1-one], the concentration for 50% growth inhibition (GI50) in the data set on MCF-7 (breast) (MCF7, 48 h) was 0.054 µg/mL (≈ 0.117 µM); in the data set with NCI-H460 (lung) (NCI-H460, 48 h), 0.24 µg/mL (≈ 0.518 µM); with DU-145 (prostate) (DU-145, 48 h) it was 0.39 µg/mL (≈ 0.842 µM); in the data set on BXPC-3 (pancreas) (BXPC-3, 48 h), 1 µg/mL (≈ 2.16 µM); with SF-268 (CNS) (SF-268, 48 h), 0.061 µg/mL (≈ 0.132 µM). Further, the IC50 in data set [1] (setting [2]) was determined as 0.89 µg/mL (≈ 1.92 µM).
Consider `COc1ccc(C2C3=C(COC3=O)Nc3cc(OC)c(OC)c(OC)c32)cc1O` (stereo not shown) [Compound 15c, 6,7,8-Trimethoxy-9-(3-hydroxy-4-methoxyphenyl)-4,9-dihydro-3H-furo[3,4-b]quinolin-1-one], for which the GI50 was 7 µg/mL (≈ 17.5 µM) in the data set on MCF-7 (breast) (MCF7, 48 h); 10.1 µg/mL (≈ 25.3 µM) with NCI-H460 (lung) (NCI-H460, 48 h); above 10 µg/mL with DU-145 (prostate) (DU-145, 48 h); 6.5 µg/mL (≈ 16.3 µM) with BXPC-3 (pancreas) (BXPC-3, 48 h); 7.3 µg/mL (≈ 18.3 µM) with SF-268 (CNS) (SF-268, 48 h). Further, the IC50 in data set [1] (setting [2]) turned out to be 0.78 µg/mL (≈ 1.95 µM).
As to `COc1cc(C2C3=C(COC3=O)Nc3cc4c(cc32)OCO4)cc(OC)c1O` (stereo not shown) [Compound 29, 6,7-Methylenedioxy-9-(4-hydroxy-3,5-dimethoxy-phenyl)-4,9-dihydro-3H-furo[3,4-b]quinolin-1-one], the GI50 with MCF-7 (breast) (MCF7, 48 h) came to 0.025 µg/mL (≈ 0.0652 µM); in the data set on NCI-H460 (lung) (NCI-H460, 48 h), 0.027 µg/mL (≈ 0.0704 µM); in the data set on DU-145 (prostate) (DU-145, 48 h), 0.033 µg/mL (≈ 0.0861 µM); in the data set with BXPC-3 (pancreas) (BXPC-3, 48 h), 0.028 µg/mL (≈ 0.073 µM); in the data set with KM20L2 (colon) (KM-20L2, 48 h), 0.032 µg/mL (≈ 0.0835 µM); in the data set with SF-268 (CNS) (SF-268, 48 h) it was 0.026 µg/mL (≈ 0.0678 µM). In data set [1] (setting [2]), the IC50 was 0.028 µg/mL (≈ 0.073 µM).
In the case of `COc1cc(C2C3=C(COC3=O)Nc3cc(OC)c(OC)c(OC)c32)cc(Br)c1OC` (stereo not shown) [Compound 15a, 6,7,8-Trimethoxy-9-(3-bromo-4,5-trimethoxyphenyl)-4,9-dihydro-3H-furo[3,4-b]quinolin-1-one], the melting point lay within 175 to 177 °C. Besides, the GI50 with MCF-7 (breast) (MCF7, 48 h) was 0.12 µg/mL (≈ 0.244 µM). Moreover, in the data set with NCI-H460 (lung) (NCI-H460, 48 h), the GI50 is 0.35 µg/mL (≈ 0.711 µM). The IC50 in data set [1] (setting [2]) was found to be 0.11 µg/mL (≈ 0.223 µM). For the same compound, in the data set on DU-145 (prostate) (DU-145, 48 h), the GI50 is 0.42 µg/mL (≈ 0.853 µM). Also, the GI50 in the data set on BXPC-3 (pancreas) (BXPC-3, 48 h) turned out to be 0.56 µg/mL (≈ 1.14 µM). Further, the GI50 in the data set on SF-268 (CNS) (SF-268, 48 h) came to 0.11 µg/mL (≈ 0.223 µM).

One may read the GI50 as the concentration that inhibits growth by half. Usually melting point stands for the temperature of the solid-liquid transition.

The record behind these values is patent US11098052B2, “4-azapodophylotoxins compounds” (Arizona Board of Regents on behalf of Arizona State …, priority 2016, dated 2021).
